Read-outs that look alike come from different tables or passages of the source.
Tests used:
Hela = assay: MTT cytotoxicity assay, Hela; format: cell-based
Procedure: (§2) The cytotoxicity of C1–C3 was determined using an MTT (3-(4,5-dimethylthiazol-2-yl)-2,5-diphenyltetrazolium bromide) assay on various cancer cells.

MCF-7 = assay: MTT cytotoxicity assay, MCF-7; format: cell-based
Procedure: as §2

A549 cells [1] = assay: MTT cytotoxicity assay, A549
Procedure: as §2

WI-38 = assay: MTT cytotoxicity assay, WI-38; format: cell-based
Procedure: as §2

[2] = test system: cisplatin-resistant lung cancer (A549cisR) cells; assay: MTT cytotoxicity assay, A549cisR; format: cell-based
Procedure: as §2

A549 tumor = assay: In vivo antitumor experiment in mice bearing A549 tumors; parameters: species or system BALB/C nude mice; details: for Tumor growth inhibition rate: two weeks, mice bearing A549 tumors
Procedure: Based on these promising biological properties, the in vivo therapeutic efficacy of C1 was further investigated in mice bearing A549 tumors. […] Generally, body weight change is considered a key indicator of systemic toxicity.
In addition, TUNEL (terminal deoxynucleotidyl transferase dUTP nick end labeling) staining of tumor tissue sections was performed to examine the effect of C1 on apoptosis in vivo. […] Histological analyses were carried out using H&E (hematoxylin and eosin) staining to evaluate the toxicity of C1 for the major organ.
BALB/C nude mice (6–8 weeks old, 18–22 g) were purchased from Hunan SJA Laboratory Animal Co., Ltd. An amount of 200 μL of A549 cells (containing 2 × 10^6 cells) were subcutaneously injected into the left flank of the mice. The mice were randomly divided into 3 groups when the average tumor size reached 100 mm^3. Then, the mice were treated with saline and C1 (2.5 and 5 mg/kg) for two weeks. C1 was dissolved in saline. During the treatment, the tumor volume and body weight of mice were measured every two days. The major organs (heart, kidney, and liver) and tumor tissues were harvested and sliced for H&E staining and TUNEL staining, respectively.

A549 cells [3] = assay: Measurement of cellular ROS (H2DCF-DA, flow cytometry); format: cell-based; details: 4 μM and 8 μM, 24 h, vs control
Procedure: A change in the mitochondrial membrane potential results in mitochondrial dysfunction, which can induce reactive oxygen species (ROS) production. Based on the above information, we detected the ROS level in A549 cells using flow cytometry.
The ROS in A549 cells was analyzed by flow cytometry. After pretreatment with C1 (4 μM and 8 μM) for 24 h, the A549 cells were collected and stained with H2DCF-DA. After 20 min, the samples were measured using a flow cytometer.

A549 cells [4] = assay: Wound-healing assay (cell migration); format: cell-based; details: 2 μM and 4 μM, 24 h
Procedure: (§1) Cell migration is crucial to cancer development and metastasis; metastasis is a major cause of many cancer-related deaths. The migration is very usually assessed by the application of the wound-healing assay, which involves the creation of an artificial gap in a cancer cell monolayer, followed by observation of the area covered with migrating cells. Therefore, the inhibiting effect of C1 on cancer cell migration was evaluated using a wound-healing assay. […] In addition, the effect of C1 on A549 cell invasion was investigated using a transwell assay.
To evaluate the impact of C1 on cell migration, a wound-healing assay was carried out. A549 cells were seeded into 6-well plates and incubated overnight at 37 °C. C1 was dissolved in saline. Subsequently, scratch wounds were performed in the monolayer of cells using sterile toothpicks, and then the cells were treated with the Cu complex (2 μM and 4 μM). The cells were captured using an inverted microscope at 0 and 24 h.

A549 cells [5] = assay: Cell cycle analysis (PI, flow cytometry); format: cell-based; details: 48 h
Procedure: The influence of metal compounds on cell cycle arrest contributes to their anticancer activity. To determine the effect of C1 on the cell cycle, the distribution of the cell cycle of C1-treated A549 cells was detected using flow cytometry.
The A549 cells were seeded into 10 cm dishes and incubated overnight. Subsequently, the cells were treated with C1 (4 μM and 8 μM). After 48 h, the cells were collected, fixed with 75% ethanol overnight, stained with PI for 20 min, and measured by flow cytometry.

A549 cells [6] = assay: β-Galactosidase staining assay (senescence); format: cell-based; details: 24 h treatment
Procedure: Senescence is a permanent cellular stage involving cell cycle arrest, which is a potential strategy against cancer. We measured the impact of C1 on cell senescence in A549 cells using a β-galactosidase staining assay. The senescent cells were dyed blue by β-galactosidase.
A549 cells were cultured in 6-well plates and incubated overnight. After C1 treatment for 24 h, the cells were fixed. Then, 20 min later, the cells were washed and stained with β-galactosidase for 48 h. The stained cells were observed and captured using an inverted microscope.

A549 cells [7] = assay: Transwell invasion assay; format: cell-based; details: 24 h
Procedure: as §1
The effect of C1 on tumor cell invasiveness was assessed by transwell assay. In brief, the transwell chamber was pre-coated with 70 μL diluted matrigel for 8 h at 37 °C. A549 cells were seeded to the upper chamber, and then C1 was added to the chamber. After 24 h of incubation, the chambers were washed, stained with 0.5% crystal violet for 20 min, and captured using an inverted microscope.

[8] = Solubility in saline (0.9% sodium chloride solution); format: physicochemical
CT-DNA = assay: EB-DNA fluorescence-quenching assay; format: binding; details: C1 0−16 μM, 8 μM EB, 10 μM CT-DNA, pH 7.2 Tris–HCl
Procedure: Competitive studies with ethidium bromide (EB) have been widely used in fluorescence-quenching assays to evaluate the interaction between DNA and small molecules. Therefore, to further explore the binding property of C1 and DNA, fluorescence quenching was carried out to explore the interaction mode.
The fluorescence spectrum was performed to measure the interaction mode of C1 (0−16 μM) and EB-DNA (8 μM ethidium bromide added into 10 μM CT-DNA) in a pH 7.2 Tris–HCl buffer. The EB-DNA was excited at 510 nm, and for the emission spectra, the emission range was set to 530–750 nm. C1 was gradually added to the EB-DNA solution.

A549 cells [9] = assay: Cell apoptosis analysis (Annexin V/PI, flow cytometry); format: cell-based; details: 24 h, control 4.0%
Procedure: Then, the effect of C1 on A549 cells apoptosis was stained with Annexin V/PI and analyzed using flow cytometry.
The A549 cells were placed in 6-well plates and incubated overnight. The cells were treated with C1 (4 μM and 8 μM) and incubated for 24 h. Subsequently, the cells were harvested and stained with Annexin V/PI for 20 min. The samples were detected by flow cytometry.

A549 cells [10] = assay: Comet assay (DNA damage); format: cell-based
Procedure: Excessive intracellular ROS can cause DNA damage and cell death. Next, a comet assay was performed to determine whether C1 caused DNA damage. Undamaged DNA cannot migrate, and fluorescence is only confined to the nucleus. In DNA-damaged cells, negatively charged DNA fragments are then released from the nucleus and migrate towards the anode. There was no comet-like cell observed in the control group. In comparison, C1-treated cells with longer tails (white arrows) were observed, and a higher percentage, indicating the existence of severe DNA fragmentation (Figure 7B).
The A549 cells were seed into 6-well plates and treated with C1. A mixture of 10 μL cell suspension and 70 μL low-melting-point agarose (1%) were placed on a glass microscope slide (pre-coated with 1% normal-melting-point agarose) and covered with coverslips. The cells were separate by gel electrophoresis, stained with PI, and captured using an inverted fluorescence microscope.

A549 cells [11] = assay: Mitochondrial membrane potential (JC-1, flow cytometry); format: cell-based; details: C1 8 μM, 24 h
Procedure: Mitochondria play a key role in death signals through intrinsic and extrinsic apoptosis. Therefore, after exposure to C1, A549 cells were stained with a JC-1 probe to evaluate the mitochondrial membrane potential (ΔΨm) using flow cytometry.
Exponentially growing A549 cells were cultured in 6-well plates. Subsequently, C1 (4 μM and 8 μM) was exposed to the cells for 24 h. The cells were stained with JC-1 probe and analyzed by flow cytometry.

## Oc1cc(Cl)ccc1/N=C/c1ccc2ccccc2n1 [L, 5-chloro-2-N-(2-quinolylmethylene) aminophenol]
Hela; Homo sapiens, HeLa
  IC50: > 40 µM
MCF-7; Homo sapiens, MCF7
  IC50: > 40 µM
A549 cells [1]; Homo sapiens, A549, read-out: IC50 A549
  IC50: > 40 µM
WI-38; Homo sapiens, WI-38
  IC50: > 40 µM
[2]
  IC50: > 40 µM

## [Cl][Cu][O]c1cc(Cl)ccc1N=Cc1ccc2ccccc2n1 [C1, 5-chloro-2-N-(2-quinolylmethylene)aminophenoxide-Cu(II)-chloride]
A549 tumor; C1 2.5 mg/kg
  Tumor growth inhibition rate: 46.3%
A549 tumor; C1 5 mg/kg
  Tumor growth inhibition rate: 63.5%
A549 tumor; C1 2.5 and 5 mg/kg, vs control group
  Body weight change: no apparent weight loss
A549 tumor; after treatment with C1
  Histology of heart, liver, and kidney (H&E staining): no pathological alterations or other abnormalities
A549 tumor; tumor tissue sections
  Apoptosis in tumor tissue (TUNEL staining): notable cell apoptosis
A549 cells [3]
  Intracellular ROS level: significantly increased
A549 cells [4]
  Effect on migration of A549 cells: strongly inhibited the migration ability of A549 cells
A549 cells [5]; C1 4 μM
  Percentage of cells in G0/G1 phase: 48.85%
  Percentage of cells in G2/M phase: 7.98%
  Percentage of cells in S phase: 43.17%
A549 cells [5]; C1 8 μM
  Percentage of cells in G0/G1 phase: 54.45%
  Percentage of cells in G2/M phase: 9.96%
  Percentage of cells in S phase: 35.59%
Hela
  IC50: 6.31 ± 0.32 µM
A549 cells [6]
  Cell senescence (β-galactosidase staining): can induce A549 cell senescence
A549 cells [7]
  Effect on invasion of A549 cells: could inhibit the invasion abilities of A549 cells
[8]
  Solubility in saline: ≥ 1900 µg/mL
MCF-7
  IC50: 5.3 ± 0.35 µM
CT-DNA
  DNA binding mode (EB displacement): binds to DNA in an intercalative binding mode
A549 cells [9]; C1 4 μM
  Population of apoptotic cells: 15.0%
A549 cells [9]; C1 8 μM
  Population of apoptotic cells: 23.8%
A549 cells [1]; read-out: IC50 A549, MTT assay
  IC50: 3.93 ± 0.28 µM
WI-38
  IC50: 10.2 ± 0.43 µM
A549 cells [10]
  DNA damage (comet assay): induces DNA damage
[2]
  IC50: 6.79 ± 0.38 µM
A549 cells [11]
  ΔΨm of A549 cells reduced by (JC-1): 23.7%

## N.N.[Cl][Pt][Cl] [Cisplatin, reference compound]
Hela
  IC50: 15.3 ± 0.51 µM
MCF-7
  IC50: 14.5 ± 0.48 µM
A549 cells [1]; read-out: IC50 A549, MTT assay
  IC50: 12.5 ± 0.45 µM
WI-38
  IC50: 9.61 ± 0.58 µM
[2]
  IC50: > 40 µM

## O.O.[Cl][Mn][O]c1cc(Cl)ccc1N=Cc1ccc2ccccc2n1 [C3, 5-chloro-2-N-(2-quinolylmethylene)aminophenoxide-Mn(II)-chloride/dihydrate]
Hela
  IC50: > 40 µM
[8]
  Solubility in saline: ≥ 800 µg/mL
MCF-7
  IC50: > 40 µM
A549 cells [1]; read-out: IC50 A549, MTT assay
  IC50: 33.6 ± 0.98 µM
WI-38
  IC50: > 40 µM
[2]
  IC50: > 40 µM

## 5-chloro-2-N-(2-quinolylmethylene)aminophenoxide-Zn(II)-chloride/pyridine [C2]
Hela
  IC50: 22.8 ± 0.8 µM
MCF-7
  IC50: 23.6 ± 0.98 µM
A549 cells [1]; read-out: IC50 A549, MTT assay
  IC50: 18.3 ± 0.52 µM
WI-38
  IC50: 34 ± 1.06 µM
[2]
  IC50: 29.3 ± 0.85 µM
